Holding throughout (type): functional
The nature of assay [1]: SAR analysis of small molecule activators of Apaf-1 using a LZ-Caspase-9/Caspase-3 Fluorescent Selectivity assay - Set 2. The following applies: read-out: EC50_Mean.
The target in assay [2] is T1, Apoptotic protease-activating factor 1 (Homo sapiens, UniProt O14727).
T1 sequence (O14727 whole entry): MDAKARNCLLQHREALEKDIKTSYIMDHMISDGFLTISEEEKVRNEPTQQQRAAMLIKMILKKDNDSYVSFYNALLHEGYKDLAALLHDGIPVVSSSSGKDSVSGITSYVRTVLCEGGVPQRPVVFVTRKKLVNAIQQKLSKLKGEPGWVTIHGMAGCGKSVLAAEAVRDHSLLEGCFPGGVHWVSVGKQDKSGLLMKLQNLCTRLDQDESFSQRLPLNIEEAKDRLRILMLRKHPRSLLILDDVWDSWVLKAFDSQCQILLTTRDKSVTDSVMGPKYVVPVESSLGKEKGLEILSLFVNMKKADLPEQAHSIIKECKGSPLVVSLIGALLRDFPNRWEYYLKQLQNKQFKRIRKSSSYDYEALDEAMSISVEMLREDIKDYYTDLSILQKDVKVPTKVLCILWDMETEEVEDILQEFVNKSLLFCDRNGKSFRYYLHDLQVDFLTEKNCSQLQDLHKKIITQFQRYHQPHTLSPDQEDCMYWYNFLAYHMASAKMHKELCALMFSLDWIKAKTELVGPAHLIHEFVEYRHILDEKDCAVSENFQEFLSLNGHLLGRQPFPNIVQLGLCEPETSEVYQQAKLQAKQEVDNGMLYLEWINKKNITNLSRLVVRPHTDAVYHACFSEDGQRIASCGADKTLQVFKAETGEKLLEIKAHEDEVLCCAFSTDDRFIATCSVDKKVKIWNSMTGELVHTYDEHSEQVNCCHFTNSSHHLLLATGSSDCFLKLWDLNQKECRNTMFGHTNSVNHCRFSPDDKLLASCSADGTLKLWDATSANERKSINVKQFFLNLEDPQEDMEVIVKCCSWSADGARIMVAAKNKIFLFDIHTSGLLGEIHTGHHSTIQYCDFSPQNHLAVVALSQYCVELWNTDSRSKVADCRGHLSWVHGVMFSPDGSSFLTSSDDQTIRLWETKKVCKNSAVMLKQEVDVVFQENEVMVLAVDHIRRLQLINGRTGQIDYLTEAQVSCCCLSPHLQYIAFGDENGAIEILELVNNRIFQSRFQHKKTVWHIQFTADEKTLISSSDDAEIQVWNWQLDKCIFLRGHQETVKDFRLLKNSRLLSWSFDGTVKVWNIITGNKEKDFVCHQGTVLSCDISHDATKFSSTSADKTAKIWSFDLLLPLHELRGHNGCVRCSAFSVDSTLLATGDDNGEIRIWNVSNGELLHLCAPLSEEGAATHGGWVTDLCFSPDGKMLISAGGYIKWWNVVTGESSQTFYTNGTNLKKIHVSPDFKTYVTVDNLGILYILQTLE
As to the kind of experiment: SAR analysis of small molecule Activators of Apaf-1 in a Fluorescent assay - set 2. The following applies: read-out: EC50_Mean.

Assay [3] deals with Melanin-concentrating hormone receptor 1 (Homo sapiens, UniProt Q99705). As to the kind of experiment: Late-stage fluorescence-based counterscreen for antagonists of the G-protein coupled receptor 7 (GPR7): cell-based dose response assay to identify antagonists of the melanin-concentrating hormone receptor 1 (MCHR1) Set 6.
Sequence of Melanin-concentrating hormone receptor 1 (Q99705 whole entry): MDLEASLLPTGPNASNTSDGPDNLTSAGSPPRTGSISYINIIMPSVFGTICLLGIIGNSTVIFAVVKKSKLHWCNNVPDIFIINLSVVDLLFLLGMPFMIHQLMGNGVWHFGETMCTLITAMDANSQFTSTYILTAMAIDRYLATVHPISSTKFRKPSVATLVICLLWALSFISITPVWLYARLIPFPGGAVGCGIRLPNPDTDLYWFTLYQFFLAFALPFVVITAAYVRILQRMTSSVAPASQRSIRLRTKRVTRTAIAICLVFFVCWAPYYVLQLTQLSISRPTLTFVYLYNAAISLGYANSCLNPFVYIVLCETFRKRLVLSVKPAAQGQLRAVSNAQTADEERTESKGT
The target in assay [4] is T2, Neuropeptides B/W receptor type 1 (Homo sapiens, UniProt P48145).
T2 sequence (P48145 whole entry): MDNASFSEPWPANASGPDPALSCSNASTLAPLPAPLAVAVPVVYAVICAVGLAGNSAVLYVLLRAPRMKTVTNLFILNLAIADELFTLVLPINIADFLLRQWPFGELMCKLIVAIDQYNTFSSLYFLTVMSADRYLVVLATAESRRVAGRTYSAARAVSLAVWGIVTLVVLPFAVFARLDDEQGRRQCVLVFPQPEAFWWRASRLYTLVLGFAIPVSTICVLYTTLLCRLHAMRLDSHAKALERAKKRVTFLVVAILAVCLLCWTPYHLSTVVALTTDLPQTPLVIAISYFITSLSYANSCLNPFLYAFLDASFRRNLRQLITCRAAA
As to the kind of experiment: human NPBW1 receptor blockade, IC50 – cell-based, fluorescence, dose response, set 6, late-stage follow-up (AID 588583).

Activity calls are given as the source filed them.

For the compound `CC(Cn1nnc2ccccc21)C(=O)O` (centres undefined), the EC50 in assay [1] is > 100 µM (inactive); in assay [2], 42.6 µM (active).
Take `N#CC(c1ccccc1)c1c(S)cnn(Cc2cccc3ccccc23)c1=O` (centres undefined): the IC50 in assay [3] and in assay [4] was > 20 µM (inactive) throughout.

For the origin of these results see ChEMBL document CHEMBL1201862, “PubChem BioAssay data set” (2004).
